According to publication PMC10657444, “Design and evaluation of tadpole-like conformational antimicrobial peptides” (Communications Biology, 2023):
≈ marks a conversion by molar mass, not a printed value. Where “and” joins values, the source holds several entries; their conditions need not be identical. Equal entries are not always repeated. Non-standard residues stand in square brackets, D forms with d. Residues, ends and D or L forms follow the SMILES beside them.

Experiments:
MRSA = format: cell-based, Staphylococcus aureus
Source text: (§1) Bacteria were cultivated in Luria-Bertani (LB) broth.

S. aureus ATCC 25923 = experiment: Time-kill assay (growth curve, OD600); format: cell-based, Staphylococcus aureus; settings: 16 × MIC
Experimental: Tube was inoculated (5 × 10^6 CFU/mL) with S. aureus ATCC 25923 and incubated at 37°C under shaking. Bacterial concentration was measured at each time point (0, 1, 2, 2.5, 3, 3.5, 4, 5, 6 and 7 h) by measuring absorbance at 600 nm with a microplate reader.

MRSA USA 300 = experiment: Membrane depolarization assay, DiSC3(5); format: cell-based, Staphylococcus aureus
Experimental: MRSA USA 300 and K. pneumoniae ATCC 700603 were inoculated into 5 mL of LB and shaken at 37°C and 225 rpm to OD600 ≈ 0.5 (i.e., mid-logarithmic phase). Bacteria were collected by centrifugation at 8000 rpm for 5 min, and washed twice with assay buffer (5 mM HEPES, 20 mM glucose, 10 mM KCl, pH 7.2). Bacteria were resuspended in the assay buffer to OD595 ≈ 0.1. DiSC3(5) was added to the cells at final concentration of 0.3 µM, wrapped with aluminum foil, and incubated at 37°C, until a stable fluorescence was observed. Two microliter of compound or DMSO were transferred into 96-well black walled polystyrene plates, to which was added 98 µL per well of the dye-saturated bacterial cells to initiate the reaction. The final concentration of HT2 and RI-HT2 were 1 ×, 2 ×, 4 × and 8 × MIC. Plates were immediately read on an Envison at λex = 622 nm/ λem = 670 nm with a kinetic program (reading every 1 min for 10 min) until the maximal intensity achieved was observed.

[1] = system: Gram-negative bacterial strains; format: cell-based; settings: A. baumannii and Klebsiella pneumoniae
Source text: as §1

A. baumannii 1318 = format: cell-based, Acinetobacter baumannii
Source text: as §1

A. baumannii 1337 = format: cell-based, Acinetobacter baumannii
Source text: as §1

K. pneumoniae 3026 = format: cell-based, Klebsiella pneumoniae
Source text: as §1

SMILES | MICs against Gram-positive bacterial strains (MRSA) [µM] | time to complete inhibition of bacterial growth (S. aureus ATCC 25923) [h] | OD600, growth curve (SI Fig 2) (S. aureus ATCC 25923; 0 h) | OD600, growth curve (SI Fig 2) (S. aureus ATCC 25923; 1 h) | OD600, growth curve (SI Fig 2) (S. aureus ATCC 25923; 2 h) | OD600, growth curve (SI Fig 2) (S. aureus ATCC 25923; 2.5 h) | OD600, growth curve (SI Fig 2) (S. aureus ATCC 25923; 3 h) | OD600, growth curve (SI Fig 2) (S. aureus ATCC 25923; 3.5 h) | OD600, growth curve (SI Fig 2) (S. aureus ATCC 25923; 4 h) | OD600, growth curve (SI Fig 2) (S. aureus ATCC 25923; 5 h) | OD600, growth curve (SI Fig 2) (S. aureus ATCC 25923; 6 h) | OD600, growth curve (SI Fig 2) (S. aureus ATCC 25923; 7 h) | concentration at which DiSC3(5) fluorescence intensity changed significantly (MRSA USA 300) [× MIC] | MICs against Gram-negative bacterial strains, such as A. baumannii and Klebsiella pneumoniae [1] [µM] | MIC Gram- A. b 1318 (A. baumannii 1318) [µM] | MIC Gram- A. b 1337 (A. baumannii 1337) [µM] | MIC Gram- K. p 3026 (K. pneumoniae 3026) [µM]
CC[C@H](C)[C@H](NC(=O)[C@H](CCCNC(=N)N)NC(=O)[C@H](CCCNC(=N)N)NC(=O)[C@H](CC(C)C)NC(=O)[C@H](Cc1ccccc1)NC(=O)[C@@H](N)CCCNC(=N)N)C(=O)N[C@@H](Cc1ccccc1)C(=O)N[C@@H](Cc1ccccc1)C(=O)N[C@@H](Cc1ccccc1)C(=O)N[C@@H](Cc1ccccc1)C(N)=O [HT2] (H-RFLRRIFFFF-NH2) | 1.57 to 3.13 | 1 | 0.056 and 0.082 and 0.062 | 0.082 and 0.091 and 0.066 | 0.069 and 0.072 and 0.06 | 0.061 and 0.073 and 0.063 | 0.083 and 0.086 and 0.085 | 0.066 and 0.069 and 0.083 | 0.073 and 0.083 and 0.077 | 0.07 and 0.073 and 0.058 | 0.08 and 0.081 and 0.078 | 0.077 and 0.084 and 0.075 | 4 | 6.25 |  |  | 
CC[C@@H](C)[C@@H](NC(=O)[C@@H](Cc1ccccc1)NC(=O)[C@@H](Cc1ccccc1)NC(=O)[C@@H](Cc1ccccc1)NC(=O)[C@H](N)Cc1ccccc1)C(=O)N[C@H](CCCNC(=N)N)C(=O)N[C@H](CCCNC(=N)N)C(=O)N[C@H](CC(C)C)C(=O)N[C@H](Cc1ccccc1)C(=O)N[C@H](CCCNC(=N)N)C(N)=O [RI-HT2] (H-[dF][dF][dF][dF][dI][dR][dR][dL][dF][dR]-NH2; N-terminus assumed) |  |  |  |  |  |  |  |  |  |  |  |  | 8 |  | 3.13 (≈ 4.53 µg/mL) | 3.13 (≈ 4.53 µg/mL) | 3.13 (≈ 4.53 µg/mL)
